The results in this text go back to PMC2795317 (Journal of medicinal chemistry, 2009).

The test system of this test is MDA-MB-231 breast cancer cells. The test is described as follows: Western blot analysis of caspase-8/-3 processing and PARP cleavage. It counts as cell-based. The note with it: 24 hours; for Concentration inducing processing of caspase-3 and -8 and cleavage of PARP: concentrations as low as.

The structures appear in SMILES notation.

As to `CN[C@@H](C)C(=O)N[C@H]1CCCC[C@H]2CC[C@@H](C(=O)NC(c3ccccc3)c3ccccc3)N2C1=O` [Compound 7], the “Processing of caspase-8 and -3 and cleavage of PARP” value was “effectively induce processing of caspase-8 and -3 and cleavage of PARP in a dose-dependent manner”.

As for `CN[C@@H](C)C(=O)N[C@H]1CCCC[C@H]2CC[C@@H](C(=O)N[C@@H]3CCCc4ccccc43)N2C1=O` [Compound 8], the “Processing of caspase-8 and -3 and cleavage of PARP” value is “effectively induce processing of caspase-8 and -3 and cleavage of PARP in a dose-dependent manner”; the “Concentration inducing processing of caspase-3 and -8 and cleavage of PARP” value is reported as not above 10 nM.

Regarding `CN[C@@H](C)C(=O)N[C@H]1CCCC[C@H]2[C@@H](Cc3ccccc3)C[C@@H](C(=O)N[C@@H]3CCCc4ccccc43)N2C1=O` [Compound 10], the “Processing of caspase-8 and -3 and cleavage of PARP” value is “effectively induce processing of caspase-8 and -3 and cleavage of PARP in a dose-dependent manner”; the “Concentration inducing processing of caspase-3 and -8 and cleavage of PARP” value is not above 10 nM.
